Assay results reported in US20140234420A1, “Method of Treating Skin Disorders using Nanoscale Delivery Devices and Transdermal Enhancing Compositions” (priority 2008, published 2014).
Values after ≈ are worked out from the molar mass of the structure shown. Where a name gives a salt, the structure may show the parent alone. Read-outs that look alike come from different tables or passages of the source. Each block holds one molecule with its values, some of them ahead of it.

How the values were obtained:
[1] = Size, polydispersity index and zeta potential determination (Malvern Zetasizer); type: physicochemical
Procedure: Nanoparticles (2 mg) and micelles (2 mg) were dispersed in 2 ml of purified water and bath sonicated for 1 min. They were then centrifuged at 10000 rpm for 5 min and diluted 50 times with distilled water. About 50 μl of the nanoemulsion was taken and dilated to 1 mL using distilled water. A liposome dispersion was diluted 100 times using purified water and probe sonicated for 1 min using 20% amplitude. The sizes, polydispersity indexes, and zeta potentials, were measured with a Malvern Zetasizer.
Nanoparticles (2 mg) were dispersed in 1 ml of purified water and probe sonicated for 1 min using 20% amplitude. Subsequently, the sonicated particles were diluted 10 times with distilled water and properties were measured using a Malvern Zetasizer. […]
Size, polydispersity index and zeta potential determination: nanoparticles (50 μl), nanoemulsions (squalene) (50 μl) and nanomicelles (2 mg) were dispersed in 2 ml of purified water separately, vortex for 1 min. Further, the size, polydispersity index and zeta potential were measured with a Malvern Zetasizer.

[2] = cited from earlier work
[3] = Encapsulation (entrapment) efficiency; type: physicochemical; conditions: for % EE: drug encapsulated in zein/lecithin/squalene nanoemulsions
Procedure: Detection wavelength: 340 nm; Injection volume: 50 μl: Run time: 10 min. […] The resulting solution was centrifuged at 5000 rpm for 5 min. […] The resulting solution was centrifuged 5000 rpm for 5 min. […] In vitro release of MTX from the formulations in phosphate buffer (pH 7.4) was studied using UV-spectrophotometry. […] Benzoyl peroxide content was measured using HPLC.

[4] = cited from earlier work; remark: listed apart in the source
scleroderma patients = conditions: one course of systemic treatment (MTX 15-25 mg/weekly for 6 months); cited from earlier work
[5] = hamster ear in vitro, 24 hrs treatment
Source text: The excised hamster ear was placed on the Franz diffusion cell by exposing ventral surface towards the donor compartment.

[6] = sebum flux from citrate-phosphate buffer (pH 5.5), 37° C.
Procedure: The supporting membrane (polycarbonate membrane, pore size of 0.4 μm) of each insert was loaded with 2.5±0.2 mg of the artificial sebum. […] The study was carried out in an incubator at 125 rpm under 37° C. The complete receptor medium was replaced with fresh medium at predetermined intervals, i.e., 10, 20, 30, 40, 50, 60, 75, 90, 120 and 180 minutes after treatment. […] The cumulative quantity of drug in the receiver compartment was plotted as a function of time. The flux value for a given experiment was obtained from the linear slope (steady-state portion) of the cumulative amount of drug permeated versus time curve.

[7] = Dispersibility in aqueous solution; type: physicochemical
[8] = Stability (half-life) of retinol, free and encapsulated; type: physicochemical
Source text: Encapsulation of retinol into the zein nanoparticles and micelles improved the stability of retinol by 2 to 5 fold (see Table 5).

[9] = drug encapsulated in zein/lecithin/squalene nanoemulsions
[10] = molecules encapsulated in nanoemulsions (Table 23)
[11] = compound encapsulated in zein micelles
[12] = compound encapsulated in zein core-shell particles

SMILES: O=C(OOC(=O)c1ccccc1)c1ccccc1 [Benzoyl peroxide, Benzoyl Peroxide]
Particle Size [1, 9]: 208.5 ± 6.7 nm
Solubility in ether and chloroform [2]: Soluble
Solubility in water [2]: insoluble
% EE [3]: 83.66 ± 3.81%
Log P [4, 10]: 3.48

SMILES: COc1cc(/C=C/C(=O)CC(=O)/C=C/c2ccc(O)c(OC)c2)ccc1O [Curcumin]
PI [1, 11]: 0.25 ± 0.03
Particle Size [1, 11]: 124 ± 4 nm
Encapsulation Efficiency [3, 11]: 95 ± 4%

SMILES: COc1cccc2c1C(=O)c1c(O)c3c(c(O)c1C2=O)C[C@@](O)(C(=O)CO)C[C@@H]3O[C@H]1C[C@H](N)[C@H](O)[C@H](C)O1 [Doxorubicin-HCl]
Particle Size [1, 12]: 171 ± 45 nm
Encapsulation Efficiency [3, 12]: 61 ± 16%
Log P ([4]; compounds encapsulated in zein core-shell particles (Table 1)): −0.5

SMILES: COc1cccc2c1C(=O)c1c(O)c3c(c(O)c1C2=O)C[C@@](O)(C(=O)CO)C[C@@H]3O[C@H]1C[C@H](N)[C@H](O)[C@H](C)O1 [Doxorubicin]
PI [1, 11]: 0.18 ± 0.06
Particle Size [1, 11]: 153 ± 3 nm
Encapsulation Efficiency [3, 11]: 92 ± 6%

SMILES: CN(Cc1cnc2nc(N)nc(N)c2n1)c1ccc(C(=O)N[C@@H](CCC(=O)O)C(=O)O)cc1 [Methotrexate]
Particle Size [1, 9]: 214.3 ± 8.4 nm
Patients who reached a remission status (scleroderma patients): 51%
Solubility in water ([2]; at 19° C.): < 0.1 g/100 ml
Solubility in DMSO [2]: 100 mM (≈ 45.4 mg/mL)
% EE [3]: 87.60 ± 2.1%
Log P [4]: −1.8
Log P [4, 10]: −1.8

SMILES: CCN(CC)c1ccc2nc3c4ccccc4c(=O)cc-3oc2c1 [Nile Red]
PI [1, 11]: 0.21 ± 0.08
Particle Size [1, 11]: 165 ± 7 nm
Encapsulation Efficiency [3, 11]: 77 ± 11%
Log P ([4]; compounds encapsulated in zein micelles (Table 2)): 5

The next lines start with results.

% Applied dose in Cartilage [5]: 2.409%
% Applied dose in Dermis [5]: 1.444%
% Applied dose in Dorsal [5]: 4.713%
% Applied dose in Sebaceous gland [5]: 0.06619%
% Applied dose in SC ([5]; 100 μg retinoic acid): 1.692%
SMILES: CC1=C(/C=C/C(C)=C/C=C/C(C)=C/C(=O)O)C(C)(C)CCC1 [Retinoic acid Solution]

Particle Size [1, 9]: 152 ± 3.6 nm
Flux [6]: 0.154 ± 0.003 μg/cm^2/min
SMILES: CC1=C(/C=C/C(C)=C/C=C/C(C)=C/C(=O)O)C(C)(C)CCC1 [Retinoic acid]
Solubility in fat [2]: soluble
Solubility in water [2]: nearly insoluble
Log P [4, 10]: 6.83

PI [1, 11]: 0.27 ± 0.06
Particle Size [1, 11]: 191 ± 6 nm
Dispersibility in aqueous solution / water [7]: not dispersible in water
half-life ([8]; liquid state, Dark): 1250 ± 126 min
half-life ([8]; liquid state, Light): 967 ± 114 min
half-life ([8]; solid state, Dark): 3780 ± 162 min
half-life ([8]; solid state, Light): 3160 ± 210 min
Encapsulation Efficiency [3, 11]: 83 ± 3.1%
SMILES: CC1=C(/C=C/C(C)=C/C=C/C(C)=C/CO)C(C)(C)CCC1 [Retinol]
Solubility in fat [2]: soluble
Solubility in water [2]: nearly insoluble
